Laboratory results reported in PubChem BioAssay (NCI).
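How tested: cells in 96-well plates exposed to compound for 48 hours at five concentrations. GI50 is the concentration that inhibits growth by half. At the TGI there is no net growth.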

Assays:
Test in all cases: NCI-60 cell line screen, 48 h
[1] = test system: NCI-H226 lung
[2] = test system: 786-0 renal
[3] = test system: RXF 393 renal
[4] = test system: SK-MEL-5 melanoma
[5] = test system: HOP-62 NSCLC
[6] = test system: SNB-75 CNS
[7] = test system: UACC-62 melanoma

Structure (SMILES) | GI50 [1] [µM] | TGI [1] [µM] | GI50 [2] [µM] | TGI [2] [µM] | GI50 [3] [µM] | TGI [3] [µM] | GI50 [4] [µM] | TGI [4] [µM] | GI50 [5] [µM] | TGI [5] [µM] | GI50 [6] [µM] | TGI [6] [µM] | GI50 [7] [µM] | TGI [7] [µM]
C[C@@H]1O[C@@H](O[C@H]2C[C@@H](O)[C@]3(CO)C4C(CC[C@]3(O)C2)[C@@]2(O)CC[C@H](C3=CC(=O)OC3)[C@@]2(C)C[C@H]4O)[C@H](O)[C@H](O)[C@H]1O (some centres undefined) | 0.0741 | 0.154 | 0.018 | 0.0687 | 0.0115 | 0.0291 | 0.016 | 0.0533 | 0.0137 | 0.0385 | 0.0277 | 0.0946 | 0.0819 | 0.151
COc1cc2c(-c3nc4cc(Cl)c(F)cc4s3)cc(=O)oc2c(C)c1OC | 1.72 | 3.99 | 1.02 | 2.21 | 1.55 | 3.08 | 1.23 | 2.56 | 1.67 | 3.16 | 0.62 | 1.92 | 1.3 | 2.69
O=C1Nc2ccc(F)c3c(OCCO)cc(-c4ccc[nH]4)c1c23 | 1.47 | 12.8 | 2.44 | 9.26 | 0.987 | 4.98 | 2.45 | 6.29 | 3.07 | 13.8 | 1.52 | 7.02 | 2.78 | 6.33
C[C@]12CC[C@H](O)CC1=CC[C@@H]1[C@@H]2CC[C@]2(C)C(=O)/C(=C/c3cccc(OCCCn4ccnc4)c3)C[C@@H]12 | 21.4 | 50.2 | 23.2 | 47.2 |  |  | 11.1 | 24.6 | 20.4 | 38.2 | 19.7 | 38.4 | 13.1 | 30
COC1=CC(c2ccc[nH]2)=N/C1=C\c1[nH]c(C)c(C(=O)CCC(=O)Oc2ccc3c(c2)CCC2C3CC[C@]3(C)C(=O)CC[C@@H]23)c1C (some centres undefined) | 10.9 | > 58.6 | 6 | 39.1 | 11.7 | > 87.4 | 3.48 | 19.6 | 18.2 | 66 | > 42.7 | > 96.6 | 3.71 | 17.9
COCCNCC(O)Cn1c2ccc(Cl)cc2c2cc(Cl)ccc21 (centres undefined) | 2.25 | 5.92 | 1.8 | 3.42 |  |  | 1.71 | 3.18 | 1.87 | 3.45 | 1.12 | 4.15 |  | 
COc1ccc(C2C3=C(NC(=O)C2C#N)c2ccc4ccccc4c2OCC3)cc1 (centres undefined) |  |  | 30.2 | 86.4 | 16.3 | 48.9 | > 100 | > 100 | 28.2 | 86.3 | 21.9 | 69.1 | 19 | 45.5
COc1ccc(-c2cc3cccc(OC)c3c(=O)o2)cc1OC | 2.35 | 86.5 | 50.2 | > 100 | 32 | > 100 | 4.14 | 40.8 | 62.5 | > 100 | 53.1 | > 100 | 0.661 | > 100
O=C(CC12CC3CC(CC(C3)C1)C2)NCCOCCOCCNC(=O)c1cc2c(o1)C(=O)c1ccccc1C2=O | 1.65 | 3.94 | 2.05 | 4.7 | 1.34 | 2.65 | 0.176 | 0.328 | 1.52 | 2.86 | 1.56 | 2.9 | 0.271 | 0.748
COc1ccc2c(c1)O/C(=C\c1cccc(OCC(=O)Nc3nc4ccccc4s3)c1)C2=O | 42 | > 100 | > 66.4 | > 100 | 1.96 | 3.99 | > 51.5 | > 100 | 41.1 | > 100 |  | > 24 | 23.5 | > 100
CS(=O)(=O)c1nccc(-c2c(-c3cccc(OCc4ccc(F)cc4)c3)nc3sccn23)n1 | 21.6 | > 100 | 16.8 | > 100 | 21.7 | > 100 | 2.51 | > 24.2 | 57.2 | > 100 | > 39.5 | > 83.1 | 17.5 | > 100
COc1ccc(/C=C2/CN(C(=O)c3ccccc3F)C/C(=C\c3ccc(OC)cc3)C2=O)cc1 | 29.5 | > 100 | 2.04 | 4.37 | 1.85 | 3.68 | 1.88 | 4.14 | 3.77 | 14.6 | 11.4 | 39.8 | 2.53 | 11.5
c1ccc2c(c1)O[As](O[As]1Oc3ccccc3O1)O2 | 3.61 | 19.7 | 3.66 | 15.4 | 1.64 | 13 | 1.55 | 3.69 | 3.62 | 14.2 | 1.87 | 12 |  | 
O=C(NO)c1ccc(C(=O)NO)cc1 |  | > 100 |  | > 100 |  | > 100 |  | > 100 |  | > 100 |  | > 100 |  | > 100
COc1ccc2c(c1)Oc1nc(N)c(C#N)c(N)c1C2Sc1ccc(SC)cc1 (centres undefined) | 1.92 | 3.58 | 1.66 | 3.06 | 1.72 | 3.11 | 1.79 | 3.18 | 1.83 | 3.49 | 1.46 | 2.8 | 1.81 | 3.33
Cc1oc2ccccc2c(=O)c1Cn1nnc2ccccc21 |  | > 100 |  | > 100 |  |  |  | 48.5 |  | > 100 |  | > 100 |  | > 100
O=S(=O)(c1cccc(C(F)(F)F)c1)N1c2ccccc2-n2cccc2C1c1cccnc1 (centres undefined) |  | > 53 |  | > 62.3 |  | > 53.9 |  | > 43 |  | > 66.8 |  | > 100 |  | > 59.5
COc1cc(OC)c(-c2cc(=O)c3c(OC)c(OC)c(OC)c(OC)c3o2)cc1OC |  | > 100 |  | > 100 |  | > 100 |  | > 100 |  | > 100 |  | > 73.9 |  | > 88.5

Structure (SMILES) | GI50 [1] [µM] | TGI [1] [µM] | GI50 [2] [µM] | TGI [2] [µM] | GI50 [3] [µM] | TGI [3] [µM] | GI50 [4] [µM] | TGI [4] [µM] | GI50 [5] [µM] | TGI [5] [µM] | GI50 [6] [µM] | TGI [6] [µM] | GI50 [7] [µM] | TGI [7] [µM]
O=C1C=C(SCCO)C(=O)c2ccccc21 | 16.3 | 36.6 | 2.27 | 6.46 | 1.64 | 3.01 | 1.61 | 2.97 | 1.7 | 3.55 | 1.37 | 2.68 | 1.6 | 3.04
O=C(NNc1nc2cc(F)ccc2n2c(CN3CCOCC3)ccc12)c1ccccc1 | 0.45 | 2.4 | 0.305 | 1.98 | 0.363 | 2.06 | 0.438 | 2.06 | 0.117 | 4.03 | 0.3 | 3.63 | 0.244 | 1.14
C=CC1CC12C(=O)C1OC2(C)C2C(=O)c3ccccc3C(=O)C12 (centres undefined) | > 76.2 | > 100 | > 52.5 | > 100 | 35.2 | > 100 | 18.7 | 54.7 | > 68 | > 100 | > 37.4 | > 76.1 | 35.1 | > 100
COc1cc2c(cc1OC)C13CCN4CC5=CCOC(CC(=O)O)C(C5CC41)C3N2 (centres undefined) |  | > 100 |  | > 100 |  |  |  | > 100 |  | > 100 |  |  |  | > 100
Cc1ccc(S(=O)(=O)N(C)C)cc1[N+](=O)[O-] | > 100 | > 100 | > 100 | > 100 | > 100 | > 100 | > 100 | > 100 | > 100 | > 100 |  |  | > 100 | > 100
COc1ccc(-c2nc(-c3nc4ccc(F)cc4[nH]3)cc3c2[nH]c2ccccc23)cc1 | 3.12 | > 100 | 3.33 | > 100 | 1.72 | 4.55 | 1.8 | 4.61 | 3.22 | 74.7 |  |  | 1.86 | 4.25
CO/N=C(\c1ccccc1)c1cnn(-c2ccccc2)c1N | > 25 | > 25 | > 25 | > 25 | > 25 | > 25 | > 25 | > 25 | > 25 | > 25 | > 25 | > 25 | > 25 | > 25
O=C1C(=O)c2ccc(Br)cc2-c2cc(Br)ccc21 | > 60.1 | > 100 | 10.4 | > 56.3 | 1.85 | 7.36 | 3.89 | > 33 | 8.44 | > 45.6 | > 54.6 | > 100 | 15.2 | > 64.9
Cc1nc2sc(C(=O)Nc3cccc4ccccc34)c(N)c2cc1C(C)O (centres undefined) | 0.28 | > 50 | 0.227 | > 50 | 0.151 | > 50 | 0.185 | 5.81 | 0.244 | > 50 | 0.119 | > 50 | 0.243 | > 50
Cc1ccc(NS(=O)(=O)c2ccc(-c3cnc(C4CC4)o3)cc2)cc1 | 7.37 | 24.5 | 6.4 | 21 | 2.36 | 10.7 | 2.43 | 8.29 | 3.13 | 16.7 | 1.13 | 4.25 | 3.06 | 14.9
Brc1c[n+](Cc2ccc3ccccc3c2)cn1Cc1ccc2ccccc2c1 | 2.24 | 5.87 | 1.75 | 3.33 | 2.51 | 6.75 | 1.6 | 2.96 | 2.16 | 5.96 | 1.34 | 3.03 | 1.24 | 2.58
CN(C(=O)c1ccc(F)cc1C(F)(F)F)C1CCN(c2nnc(-c3ccnn3C)c3ccccc23)CC1 | 28.2 | > 100 | > 100 | > 100 | 17.4 | > 84.3 | 11.6 | 30 | 65.1 | > 100 | 14.5 | > 100 | 28.9 | > 100
COc1cc(-c2c3c(cn2S(=O)(=O)c2ccccc2)-c2nc(N)sc2CC3)cc(OC)c1OC | 11.2 | 47.4 | 1.71 | 19.7 | 1.04 | 14.5 | 0.579 | 18.8 | 2.05 | 63.2 | 0.222 | 1.1 | 0.729 | > 100
CC1=CC[C@@H]2[C@@H](CC[C@@]2(C)O)C(C)(C)[C@H]1CC[C@@H]1[C@@]2(C)CCC(=O)C(C)(C)O[C@@H]2CC[C@]1(C)O |  | 63.5 |  | 59.6 |  |  |  | 39.1 |  | > 100 |  | > 100 |  | 34.9
CC(C)C1CN1CC(O)Cn1ccnc1[N+](=O)[O-] (centres undefined) |  | > 100 |  | > 100 |  |  |  | > 100 |  | > 100 |  | > 100 |  | > 100
O=S(=O)(Nc1ccc(-c2nc(-c3cccc(OCCN4CCOCC4)c3)c(-c3ccnc(Br)c3)[nH]2)cc1)c1ccccc1 | 3.1 | 40.6 | 2.37 | 7.96 | 2.26 | 6.78 | 2.12 | 4.6 | 3.5 | 57.3 |  |  | 2.66 | 12.1
Nc1ccccc1C#C/C=C\C#Cc1ccc(F)cc1F | 17.3 | 35.8 | 14.7 | 28.7 | 18.4 | 43.2 | 9.69 | 25.3 | 16 | 30 |  |  | 14.6 | 32.5
CN(C(=O)C1CCCCC1)c1ccccc1I(=O)=O | > 100 | > 100 | 43.3 | > 100 | 68.5 | > 100 | 20.3 | 73.8 |  |  | 34.6 | > 100 | 72.4 | > 100
